This is an account of results in patent US10279022B2, “Peptides and combination of peptides for use in immunotherapy against various cancers” (immatics biotechnologies GmbH, priority 2015, dated 2019).

One experiment deals with HLA-A*02 (Homo sapiens, UniProt P04439, D140Y/D185E/D98H/E176V/E277Q/G131W/G231S/I119V/I121R/I166T/I218V/L300P/N151K/N90K/P208A/P217A/Q86G/Q94H/R138H/R169H). Description: MHC binding assay by UV-ligand exchange and beta2m ELISA (HLA-A*02). The settings on record: peptide exchange yield, binding to HLA-A*02; UV-ligand exchange, beta2m ELISA. From the text:
(§1) Candidate peptides for T cell based therapies according to the present invention were further tested for their MHC binding capacity (affinity). The individual peptide-MHC complexes were produced by UV-ligand exchange, where a UV-sensitive peptide is cleaved upon UV-irradiation, and exchanged with the peptide of interest as analyzed. Only peptide candidates that can effectively bind and stabilize the peptide-receptive MHC molecules prevent dissociation of the MHC complexes. To determine the yield of the exchange reaction, an ELISA was performed based on the detection of the light chain (β2m) of stabilized MHC complexes. The assay was performed as generally described in Rodenko et al. (Rodenko et al., 2006).
(§2) 96 well MAXISorp plates (NUNC) were coated over night with 2 ug/ml streptavidin in PBS at room temperature, washed 4× and blocked for 1 h at 37° C. in 2% BSA containing blocking buffer. Refolded HLA-A*02:01/MLA-001 monomers served as standards, covering the range of 15-500 ng/ml. Peptide-MHC monomers of the UV-exchange reaction were diluted 100 fold in blocking buffer. Samples were incubated for 1 h at 37° C., washed four times, incubated with 2 ug/ml HRP conjugated anti-β2m for 1 h at 37° C., washed again and detected with TMB solution that is stopped with […]. Absorption was measured at 450 nm. Candidate peptides that show a high exchange yield (preferably higher than 50%, most preferred higher than 75%) are generally preferred for a generation and production of antibodies or fragments thereof, and/or T cell receptors or fragments thereof, as they show sufficient avidity to the MHC molecules and prevent dissociation of the MHC complexes.
A general note: In an ELISA, binding on a coated surface is turned into a signal by an enzyme label.

For another experiment, the system named is CD8+ T cells. Briefly: In vitro T-cell priming assay (aAPCs loaded with peptide/MHC and anti-CD28), pMHC multimer readout. It counts as cell-based, human. The conditions noted are these: for Wells positive [%]: in vitro immunogenicity of HLA class I peptides, peptide specific pMHC multimer staining after three stimulation cycles. An excerpt:
In order to obtain information regarding the immunogenicity of the TUMAPs of the present invention, the inventors performed investigations using an in vitro T-cell priming assay based on repeated stimulations of CD8+ T cells with artificial antigen presenting cells (aAPCs) loaded with peptide/MHC complexes and anti-CD28 antibody.
In order to perform in vitro stimulations by artificial antigen presenting cells loaded with peptide-MHC complex (pMHC) and anti-CD28 antibody, the inventors first isolated CD8+ T cells from fresh HLA-A*02 leukapheresis products via positive selection using CD8 microbeads (Miltenyi Biotec, Bergisch-Gladbach, Germany) of healthy donors obtained from the University clinics Mannheim, Germany, after informed consent.
PBMCs and isolated CD8+ lymphocytes were incubated in T-cell medium (TCM) until use consisting of RPMI-Glutamax (Invitrogen, Karlsruhe, Germany) supplemented with 10% heat inactivated human AB serum (PAN-Biotech, Aidenbach, Germany), 100 U/ml Penicillin/100 μg/ml Streptomycin (Cambrex, Cologne, Germany), 1 mM sodium pyruvate (CC Pro, Oberdorla, Germany), 20 μg/ml Gentamycin (Cambrex). 2.5 ng/ml IL7 (PromoCell, Heidelberg, Germany) and 10 U/ml IL-2 (Novartis Pharma, Nurnberg, Germany) were also added to the TCM at this step.
Generation of pMHC/anti-CD28 coated beads, T-cell stimulations and readout was performed in a highly defined in vitro system using four different pMHC molecules per stimulation condition and 8 different pMHC molecules per readout condition.
The purified co-stimulatory mouse IgG2a anti human CD28 Ab 9.3 (Jung et al., 1987) was chemically biotinylated using Sulfo-N-hydroxysuccinimidobiotin as recommended by the manufacturer (Perbio, Bonn, Germany). Beads used were 5.6 μm diameter streptavidin coated polystyrene particles (Bangs Laboratories, Illinois, USA).
pMHC used for positive and negative control stimulations were A*0201/MLA-001 (peptide […] (SEQ ID NO. 303) from modified Melan-A/MART-1) and A*0201/DDX5-001 ([…] from DDX5, SEQ ID NO. 304), respectively.
800.000 beads/200 μl were coated in 96-well plates in the presence of 4×12.5 ng different biotin-pMHC, washed and 600 ng biotin anti-CD28 were added subsequently in a volume of 200 μl. Stimulations were initiated in 96-well plates by co-incubating 1×10^6 CD8+ T cells with 2×10^5 washed coated beads in 200 μl TCM supplemented with 5 ng/ml IL-12 (PromoCell) for 3 days at 37° C. Half of the medium was then exchanged by fresh TCM supplemented with 80 U/ml IL-2 and incubating was continued for 4 days at 37° C. This stimulation cycle was performed for a total of three times. For the pMHC multimer readout using 8 different pMHC molecules per condition, a two-dimensional combinatorial coding approach was used as previously described (Andersen et al., 2012) with minor modifications encompassing coupling to 5 different fluorochromes. Finally, multimeric analyses were performed by staining the cells with Live/dead near IR dye (Invitrogen, Karlsruhe, Germany), CD8-FITC antibody clone SK1 (BD, Heidelberg, Germany) and fluorescent pMHC multimers. For analysis, a BD LSRII SORP cytometer equipped with appropriate lasers and filters was used. Peptide specific cells were calculated as percentage of total CD8+ cells. Evaluation of multimeric analysis was done using the FlowJo software (Tree Star, Oregon, USA). In vitro priming of specific multimer+CD8+ lymphocytes was detected by comparing to negative control stimulations.

The test system of the next experiment is HLA-A*24. Briefly: MHC binding assay by UV-ligand exchange and beta2m ELISA (HLA-A*24). The arrangement: species or system human. The conditions noted are these: peptide exchange yield, binding to HLA-A*24; UV-ligand exchange, beta2m ELISA.
Text: as §1, §2

Take “14 (ILAKDLFEI; listed as Homo sapiens) [compound 14]”: the Peptide exchange result with HLA-A*02 was “++++ (> = 75% = ++++)”.

Consider “245 (SLLDLPLSL; listed as Homo sapiens) [compound 245]”, for which the Peptide exchange entry with HLA-A*02 is on record as “++++ (> = 75% = ++++)”.

With “34 (FLLATEVVTV; listed as Homo sapiens) [compound 34]”, in the experiment with HLA-A*02, the Peptide exchange result is “++++ (> = 75% = ++++)”.

Take “153 (FISERVEVV; listed as Homo sapiens) [compound 153]”: the Peptide exchange result with HLA-A*02 was “++++ (> = 75% = ++++)”.

In the case of “112 (SLGKFTFDV; listed as Homo sapiens) [compound 112]”, the Peptide exchange result with HLA-A*02 is recorded as “++++ (> = 75% = ++++)”.

On to “12 (GLLPLLHRA; listed as Homo sapiens) [compound 12]”, for which, in the experiment with CD8+ T cells, the “Wells positive [%]” value was “++++ (> = 70% = ++++)”. Besides, the Peptide exchange entry in the experiment with HLA-A*02 is “++++ (> = 75% = ++++)”.

As to “249 (GLCERLVSL; listed as Homo sapiens) [compound 249]”, in the experiment on CD8+ T cells, the “Wells positive [%]” value is “+ (<20% = +)”. Moreover, in the experiment with HLA-A*02, the Peptide exchange entry was “++++ (> = 75% = ++++)”.

Consider “229 (AILAHLNTV; listed as Homo sapiens) [compound 229]”, for which the Peptide exchange entry with HLA-A*02 is “++++ (> = 75% = ++++)”.

Turning to “147 (YLMDDTVEI; listed as Homo sapiens) [compound 147]”, in the experiment with HLA-A*02, the Peptide exchange entry is given as “++++ (> = 75% = ++++)”.

With “126 (QMFQYFITV; listed as Homo sapiens) [compound 126]”, the Peptide exchange entry with HLA-A*02 is given as “++++ (> = 75% = ++++)”.

For the substance “129 (RLQDILWFL; listed as Homo sapiens) [compound 129]”, the Peptide exchange entry in the experiment with HLA-A*02 was “++++ (> = 75% = ++++)”.

On to “51 (LLFSRLCGA; listed as Homo sapiens) [compound 51]”, for which the Peptide exchange entry with HLA-A*02 is recorded as “++++ (> = 75% = ++++)”.

Regarding “95 (GLLGSLFFL; listed as Homo sapiens) [compound 95]”, in the experiment with HLA-A*02, the Peptide exchange result is listed as “++++ (> = 75% = ++++)”.

Turning to “133 (ALLPRLHQL; listed as Homo sapiens) [compound 133]”, the Peptide exchange entry in the experiment with HLA-A*02 was “++++ (> = 75% = ++++)”.

Consider “84 (ALCPRIHEV; listed as Homo sapiens) [compound 84]”, for which the Peptide exchange entry with HLA-A*02 was “++++ (> = 75% = ++++)”.

Consider “257 (GLYTDPCGV; listed as Homo sapiens) [compound 257]”, for which the Peptide exchange entry in the experiment with HLA-A*02 is “++++ (> = 75% = ++++)”.

For “4 (KLMPGTYTL; listed as Homo sapiens) [compound 4]”, the “Wells positive [%]” value with CD8+ T cells was “+ (<20% = +)”. The Peptide exchange entry with HLA-A*02 is “++++ (> = 75% = ++++)”.

In the case of “3 (KLEENGDLYL; listed as Homo sapiens) [compound 3]”, the Peptide exchange entry with HLA-A*02 is recorded as “++++ (> = 75% = ++++)”.

With “167 (NYINRILKL; listed as Homo sapiens) [compound 167]”, the “Wells positive [%]” value in the experiment on CD8+ T cells is “+ (<20% = +)”. Moreover, the Peptide exchange entry in the experiment with HLA-A*24 is on record as “++++ (> = 75% = ++++)”.

As for “1 (LLYPEPWSV; listed as Homo sapiens) [compound 1]”, in the experiment with HLA-A*02, the Peptide exchange result is “++++ (> = 75% = ++++)”.

“248 (YLDRFLAGV; listed as Homo sapiens) [compound 248]”: the Peptide exchange result in the experiment with HLA-A*02 was “++++ (> = 75% = ++++)”.

On to “230 (KLQNIMMLL; listed as Homo sapiens) [compound 230]”, for which, in the experiment on CD8+ T cells, the “Wells positive [%]” value is reported as “++++ (> = 70% = ++++)”.

“269 (YFIDSTNLKTHF; listed as Homo sapiens) [compound 269]”: in the experiment with CD8+ T cells, the “Wells positive [%]” value was “+ (<20% = +)”.

Take “158 (HYSQELSLLYL; listed as Homo sapiens) [compound 158]”: the “Wells positive [%]” value with CD8+ T cells was “+ (<20% = +)”. The Peptide exchange entry in the experiment with HLA-A*24 is “++++ (> = 75% = ++++)”.

Consider “18 (ILLDLTDNRL; listed as Homo sapiens) [compound 18]”, for which, in the experiment on CD8+ T cells, the “Wells positive [%]” value was “+ (<20% = +)”.

Regarding “218 (YYKSTSSAF; listed as Homo sapiens) [compound 218]”, the “Wells positive [%]” value in the experiment on CD8+ T cells was “+ (<20% = +)”.

Take “165 (DYTTWTALL; listed as Homo sapiens) [compound 165]”: the “Wells positive [%]” value with CD8+ T cells is “+ (<20% = +)”. Also, the Peptide exchange entry in the experiment with HLA-A*24 is listed as “++++ (> = 75% = ++++)”.

Take “26 (ALQEELTEL; listed as Homo sapiens) [compound 26]”: the “Wells positive [%]” value with CD8+ T cells is “+ (<20% = +)”.

Take “92 (GLLFSLRSV; listed as Homo sapiens) [compound 92]”: the Peptide exchange entry in the experiment with HLA-A*02 is “++++ (> = 75% = ++++)”.

Turning to “23 (SLFSDEFKV; listed as Homo sapiens) [compound 23]”, the “Wells positive [%]” value with CD8+ T cells is given as “++++ (> = 70% = ++++)”.

Turning to “16 (YTLDIPVLFGV; listed as Homo sapiens) [compound 16]”, the Peptide exchange result in the experiment with HLA-A*02 is listed as “++++ (> = 75% = ++++)”.

Consider “163 (DYLKGLASF; listed as Homo sapiens) [compound 163]”, for which the “Wells positive [%]” value in the experiment with CD8+ T cells is listed as “+ (<20% = +)”. Further, the Peptide exchange entry with HLA-A*24 is given as “++++ (> = 75% = ++++)”.

“268 (QYLGQIQHI; listed as Homo sapiens) [compound 268]”: in the experiment on CD8+ T cells, the “Wells positive [%]” value is given as “+ (<20% = +)”.

“197 (EYSLFPGQVVI; listed as Homo sapiens) [compound 197]”: the “Wells positive [%]” value with CD8+ T cells is “+ (<20% = +)”.

With “149 (ILNTHITEL; listed as Homo sapiens) [compound 149]”, the “Wells positive [%]” value in the experiment with CD8+ T cells is given as “+ (<20% = +)”.

For the substance “204 (TYELRYFQI; listed as Homo sapiens) [compound 204]”, in the experiment on CD8+ T cells, the “Wells positive [%]” value is “+ (<20% = +)”. In the experiment on HLA-A*24, the Peptide exchange result is “++++ (> = 75% = ++++)”.

For the substance “159 (LYNKGFIYL; listed as Homo sapiens) [compound 159]”, in the experiment with CD8+ T cells, the “Wells positive [%]” value is listed as “++++ (> = 70% = ++++)”. In addition, the Peptide exchange result in the experiment on HLA-A*24 is “++++ (> = 75% = ++++)”.

For the substance “298 (RYLEGTSCI; listed as Homo sapiens) [compound 298]”, the “in vitro immunogenicity: Wells” value in the experiment on CD8+ T cells (positive wells, HLA-A*02 and HLA-A*24 peptides, healthy donors) is listed as “+ (<20% = +)”.

As to “258 (LLSERFINV; listed as Homo sapiens) [compound 258]”, the Peptide exchange entry in the experiment with HLA-A*02 is given as “++++ (> = 75% = ++++)”.

Turning to “125 (SLADYEHFV; listed as Homo sapiens) [compound 125]”, in the experiment with HLA-A*02, the Peptide exchange result is “++++ (> = 75% = ++++)”.
